Measurements published in ChEMBL document CHEMBL1201862, “PubChem BioAssay data set” (2004).
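Interpolation was linear, between the two tested concentrations surrounding the appropriate level; five concentrations were tested over 48 hours in 96-well plates. At the GI50, growth is halved.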 Activity calls are given as the source filed them. Rule as the data show it: active = GI50 up to about 1.1 µM and inactive = higher.

Columns and labels:
Test in all cases: inhibition of tumour cell growth, NCI panel, 48 h
M14 = test system: M14
NCI-H460 = test system: NCI-H460
KM12 = test system: KM12
SK-OV-3 = test system: SK-OV-3
LOX IMVI = test system: LOX IMVI
HOP-92 = test system: HOP-92
SK-MEL-28 = test system: SK-MEL-28
A498 = test system: A498
OVCAR-3 = test system: OVCAR-3
SW-620 = test system: SW-620
NCI/ADR-RES = test system: NCI/ADR-RES
OVCAR-4 = test system: OVCAR-4
NCI-H23 = test system: NCI-H23
COLO 205 = test system: COLO 205
NCI-H522 = test system: NCI-H522
UO-31 = test system: UO-31
K562 = test system: K562
CAKI-1 = test system: CAKI-1
Malme-3M = test system: Malme-3M
HOP-62 = test system: HOP-62

Measured: GI50

N#CCCCCC12C3C(=O)N(c4ccccc4)C(=O)C3ON1O[C@@H]1C(=O)N(c3ccccc3)C(=O)[C@@H]12 (stereo not given in full)
inactive: M14 > 100 µM | NCI-H460 > 100 µM | KM12 > 100 µM | SK-OV-3 > 100 µM | LOX IMVI > 100 µM | HOP-92 > 100 µM | SK-MEL-28 > 100 µM | A498 > 100 µM | OVCAR-3 > 100 µM | SW-620 > 100 µM | NCI/ADR-RES > 100 µM | OVCAR-4 > 100 µM | NCI-H23 > 100 µM | COLO 205 > 100 µM | NCI-H522 > 100 µM | UO-31 > 100 µM | K562 > 100 µM | CAKI-1 > 100 µM | Malme-3M > 100 µM | HOP-62 > 100 µM

C/C(=N/S(=O)(=O)c1ccc(Cl)c(Cl)c1)OCC(C)(C)C
inactive: M14 > 100 µM | NCI-H460 > 100 µM | KM12 > 100 µM | SK-OV-3 > 100 µM | LOX IMVI > 100 µM | HOP-92 > 100 µM | SK-MEL-28 > 100 µM | A498 > 100 µM | OVCAR-3 > 100 µM | SW-620 > 100 µM | NCI/ADR-RES > 100 µM | OVCAR-4 > 100 µM | NCI-H23 > 100 µM | COLO 205 > 100 µM | NCI-H522 > 100 µM | UO-31 > 100 µM | K562 > 100 µM | CAKI-1 > 100 µM | Malme-3M > 100 µM | HOP-62 > 100 µM

Cc1ccc(S(=O)(=O)n2c3c(c4ccccc42)CCN2C[C@H]([C@H](C)Br)CC[C@@H]32)cc1
inactive: M14 > 100 µM | NCI-H460 > 100 µM | KM12 > 100 µM | SK-OV-3 > 100 µM | LOX IMVI > 100 µM | HOP-92 > 100 µM | SK-MEL-28 > 100 µM | A498 > 100 µM | OVCAR-3 > 100 µM | SW-620 > 100 µM | NCI/ADR-RES > 100 µM | OVCAR-4 > 100 µM | NCI-H23 > 100 µM | COLO 205 > 100 µM | NCI-H522 > 100 µM | UO-31 > 100 µM | K562 25.7 µM | CAKI-1 > 100 µM | Malme-3M > 100 µM | HOP-62 > 100 µM

N#Cc1c(O)c(C=O)c(=O)n2c1[nH]c1ccccc12
inactive: M14 > 100 µM | NCI-H460 > 100 µM | KM12 > 100 µM | SK-OV-3 > 100 µM | LOX IMVI > 100 µM | HOP-92 > 100 µM | SK-MEL-28 > 100 µM | A498 > 100 µM | OVCAR-3 > 100 µM | SW-620 > 100 µM | NCI/ADR-RES > 100 µM | OVCAR-4 > 100 µM | NCI-H23 > 100 µM | COLO 205 > 100 µM | NCI-H522 > 100 µM | UO-31 > 100 µM | K562 > 100 µM | CAKI-1 > 100 µM | Malme-3M > 100 µM | HOP-62 > 100 µM
